These results are taken from US10947220B2, “Anti-proprotein convertase subtilisin kexin type 9 (anti-PCSK9) compounds and methods of using the same in the treatment and/or prevention of cardiovascular diseases” (Shifa Biomedical Corporation, priority 2016, dated 2021).

pIC50: −log10 of the molar value. Read-outs that look alike come from different tables or passages of the source. Some results are limits rather than exact numbers.

In assay [1] the target is T1, PCSK9/LDLR interaction (His-tagged PCSK9, recombinant LDLR-AB domain) (Homo sapiens, UniProt Q8NBP7).
T1 construct: purchased Circulex
Nature of the assay: PCSK9/LDLR binding in vitro ELISA (Circulex kit). Here is the method: For screening inhibitors of the PCSK9/LDLR interaction, different concentrations (0.01 nM-100 μM) of selected compounds were incubated with His-tagged PCSK9 and then added to wells that were pre-coated with recombinant LDLR-AB domain. After incubation, the plate was washed and the amount of recombinant His-tagged PCSK9 was measured using the biotinylated anti-His-tag and horseradish peroxidase conjugated Streptavidin, and quantitated using a BioTek Synergy 2 plate reader. The effect of each compound on the PCSK9 binding to the recombinant LDLR-AB domain was calculated.
Testing of compounds acquired from commercial sources was performed in our binding assay for their potential to inhibit the PCSK9/LDLR interaction. Initial screening was done using 100 μM of the compounds. Each compound was added to the binding reaction mixture in triplicate and assayed as described above. From the screening, a number of compounds were identified to have an effect on LDLR upregulation as compared to control (see Example 3 vide infra) while having no effect on PCSK9 processing and secretion (see Example 2 vide infra). Exemplary 2-carboxyanilide indoles and 2-carboxanilide pyrroles of the formula I that had >20% inhibition at 100 uM are shown in FIG. 1. Fifty five (55) structurally related 2-carboxyanlide benzofurans (compounds of the formulas II-IV) were also acquired. Compounds that inhibited the PCSK9/LDLR interaction were selected and analyzed using different compound concentrations ranging from 100 μM to 0.01 nM. […] (FIG. 4). Based on this preliminary SAR, an additional 34 compounds were designed and synthesized around SBC-115,337, and the compounds were tested in our binding assay as described in FIG. 4. From the screening, a number of benzofuran compounds were determined to have IC50's>10 uM but less </=50 uM (FIG. 2).
A general note: ELISA stands for enzyme-linked immunosorbent assay.

In assay [2] the test system is PCSK9 synthesis, processing and secretion. Nature of the assay: Test for secreted PCSK9 (western blot) in transfected HEK-293T cells. Type of assay: cell-based. As to conditions: 25 μM, 43 hours; cells and media. Here is the method: HEK-293T cells were seeded into 96 well plates in a DMEM containing 10% Fetal Bovine Serum media and incubated overnight at 37° C. Cells were transiently transfected with cDNA construct using the Lipofectamine-LTX. Compounds (25 μM) or vehicle were added, followed by additional 43 hours of incubation. Cellular PCSK9, secreted PCSK9, and cell viability were analyzed as described in Example 2 below.
The SBC compounds were validated for their ability to affect PCSK9 synthesis, processing and secretion as described in relation to FIG. 5.
The increase in the level of recombinant LDLR in the presence of PCSK9 by the above compounds could be either due to inhibiting the binding of PCSK9 to the LDLR or by inhibiting the processing and secretion of PCSK9. To eliminate the possibility these compounds interfere with PCSK9 synthesis, processing or secretion, we tested the effect of these compounds on the processing and secretion of PCSK9 as described above. HEK-293T cells were seeded into 96-well plates in a DMEM containing 10% Fetal Bovine Serum media and incubated overnight at 37° C. Cells were transiently transfected with cDNA construct using the Lipofectamine-LTX. Compounds (25 μM) or vehicle were added, followed by additional 43 hours of incubation. Cellular PCSK9, secreted PCSK9, and cell viability were analyzed for PCSK9 secretion using western blot analysis, imaged and quantitated using a LAS-4000 (GE).
On the technique in general: In western blotting, separated proteins are transferred to a membrane and probed.

A further assay concerns HepG2 cells. Nature of the assay: Uptake of fluorescent Dil-LDL in HepG2 cells transfected with PCSK9. Type of assay: cell-based. Conditions: 1.2 uM compound. As for the experimental part: The SBC compounds were validated for their ability to increase uptake of Fluorescent Dil-LDL in HepG2 cells.
The SBC compounds were validated for their ability to increase uptake of Fluorescent Dil-LDL in HepG2 cells as described in FIG. 9.
In order to confirm that these PCSK9 antagonists upregulate functional LDLR, we tested the ability of these compounds to enhance the uptake of fluorescent Dil-LDL in HepG2 cells. Briefly, HepG2 cells transfected with PCSK9 (FIG. 4) were plated and allowed to grow overnight. Compounds were added to the cells followed by the addition of fluorescent Dil-LDL. Cells were washed extensively, and the fluorescent Dil-LDL taken up by the cells were measured using the Synergy 2 plate reader (FIG. 9 and FIG. 12). […] These compounds were selected for further analysis in the in vivo studies.

A further assay deals with LDLR. Nature of the assay: Recombinant LDLR upregulation in HEK-293 cells transfected with LDLR/PCSK9. As to conditions: recombinant LDLR upregulation assay. Type of assay: cell-based, human. As for the experimental part:
HEK-293T cells were seeded in a DMEM containing 10% Fetal Bovine Serum media and incubated overnight at 37° C. Cells were transiently transfected with LDLR & PCSK9 cDNA constructs using the Lipofectamine-LTX as described above. After 24 hrs, cells were treated with different compounds and incubated for an additional 48 hrs. Cells were assayed as described above for LDLR expression.
HEK-293T cells were assayed as described in relation to FIG. 7.
We have constructed the expression vector of human LDLR under the control of the cytomegalovirus promoter-enhancer (pCMV-LDLR). In addition, a construct containing the PCSK9 (pCMV-PCSK9-FLAG) was described above. These constructs were used to transiently transfect mammalian cells, and both cell lysate and supernatant were subjected to SDS-PAGE and immunoblot analysis using an anti-PCSK9 or LDLR antibody. […] Addition of inhibitors of PCSK9 processing to the latter cells should result in decreased degradation of the LDLR and the appearance of the 160K Dalton band on the gel. Using this assay, we tested our compounds for their ability to reduce the degradation of the LDLR. HEK-293 cells were used in this assay. They were grown in 96-well plates overnight, and transfected with LDLR/PCSK9. Compounds dissolved in DMSO or vehicle were added to the culture media, and incubated for 24-48 hours; cells were lysed. Cell lysates were subjected to quantitation using the above immunoassay.

For another assay, the system named is plasma LDL-C. As to the kind of experiment: Efficacy in mice fed high fat diet (plasma LDL-C). Type of assay: in vivo, C57BL/6 mice. Here is the method: C57/Black 6 mice and BalB/C mice were maintained on the HFD for 4 weeks. Blood plasma was collected at day 1 prior to injection of the SBC compounds. Blood plasma was collected at day 4, at 4 hours after the LPS injection, and again at 24 hours after LPS injection. Plasma cholesterol, LDL-C, HDL-C, and triglyceride levels were measured enzymatically.
Blood plasma was collected at day 1 prior to injection of the compounds. Blood plasma was collected again at day 5. Plasma LDL-C levels was measured enzymatically. (FIG. 15A) Representing the actual change in the LDL-C in mg/dL and (FIG. 15B) representing the % reduction of LDL-C after the administration of SBC-115,418 for 5 days.
SBC-115,337 was tested for efficacy in male mice (C57BL/6 mice). Mice were housed as four animals per cage under climate-controlled conditions of temperature (20-24° C.), humidity (60-70%), and alternating 12 h light/dark cycles. […]
Blood samples (75 μl) were collected 4 days after drug administration from the retro-orbital venous plexus via heparinized capillary tubes containing 2 USP units of ammonium heparin per tube (Carolina, Burlington, N.C.). […] Plasma cholesterol, LDL-C, HDL-C, and triglyceride levels were measured enzymatically.
Similarly, SBC-115,418 was tested in mice as described above. […] Plasma LDL-C levels were measured enzymatically. […]

Where [3] appears, read: Table 1 / FIG. 11, SAR around SBC-115,337, read-out: IC-50.
Setting [4] is: bounds stated for compounds of FIG. 2 and FIG. 3, read-out: in vitro inhibition of the PCSK9/LDLR interaction (IC50).
Setting [5] is: compound concentrations 100 μM to 0.01 nM, FIG. 4, read-out: IC50, inhibition of the PCSK9/LDLR interaction.

T1 sequence (Q8NBP7 153-692): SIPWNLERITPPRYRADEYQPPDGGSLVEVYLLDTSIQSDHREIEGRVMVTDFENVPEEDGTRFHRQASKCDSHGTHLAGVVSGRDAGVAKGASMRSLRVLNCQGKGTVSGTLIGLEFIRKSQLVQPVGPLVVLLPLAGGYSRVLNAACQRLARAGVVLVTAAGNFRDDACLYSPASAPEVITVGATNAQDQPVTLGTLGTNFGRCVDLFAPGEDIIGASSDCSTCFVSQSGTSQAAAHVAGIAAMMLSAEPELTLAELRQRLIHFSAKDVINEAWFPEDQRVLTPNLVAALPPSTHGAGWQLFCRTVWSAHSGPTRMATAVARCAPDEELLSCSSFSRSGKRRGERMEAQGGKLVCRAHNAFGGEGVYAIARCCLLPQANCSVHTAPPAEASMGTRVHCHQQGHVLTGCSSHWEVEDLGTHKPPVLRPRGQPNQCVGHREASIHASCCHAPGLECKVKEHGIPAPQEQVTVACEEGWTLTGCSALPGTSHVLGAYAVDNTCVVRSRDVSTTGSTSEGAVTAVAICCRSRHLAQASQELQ
T1 sequence (Q8NBP7 31-152 partner limits assumed): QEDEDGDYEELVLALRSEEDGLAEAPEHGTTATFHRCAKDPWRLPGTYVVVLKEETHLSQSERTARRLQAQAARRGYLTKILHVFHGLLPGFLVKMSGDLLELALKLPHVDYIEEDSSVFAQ

For the molecule `O=C(Nc1ccc(-c2ncco2)cc1)c1ccc(NC(=O)c2cc3ccccc3o2)cc1` [SBC-115,433], the values for the pIC50 in assay [1] (setting [3]) and in assay [1] (setting [4]) were 5.62 and above 5.00, respectively. For the same molecule, the “effect on PCSK9 synthesis, processing and secretion” value (“effect on PCSK9 synthesis” for short) in assay [2] was “not due to its effect on synthesis and secretion of PCSK9”. The “fluorescent Dil-LDL uptake” value in the assay on HepG2 cells is reported as “significant increases in the Dil-LDL uptake”. Also, the “level of LDLR as compared to control (DMSO-treated cells)” value (shortened to “level of LDLR as compared to control”) in the assay on LDLR is recorded as “significant increase in the level of LDLR”.
As to `COc1ccc2oc(C(=O)Nc3ccc(C(=O)Nc4ccc(-c5nc6ccccc6o5)cc4)cc3)c(C)c2c1` [SBC-115,418], the “reduction in LDL-C levels relative to high fat diet animal levels” value in the assay with plasma LDL-C (10 mg/kg oral daily for 5 days, FIG. 15A-15B) is listed as 20-25%. Moreover, the pIC50 is 5.80 in assay [1] (setting [3]) and above 5.00 in assay [1] (setting [4]). In assay [2], the “effect on PCSK9 synthesis” value was “not due to its effect on synthesis and secretion of PCSK9”. The “fluorescent Dil-LDL uptake” value in the assay with HepG2 cells is recorded as “significant increases in the Dil-LDL uptake”. Also, in the assay with LDLR, the “level of LDLR as compared to control” value was “significant increase in the level of LDLR”.
As for `CN(C(=O)c1ccc(NC(=O)c2cc3ccccc3o2)cc1)c1ccc(-c2nc3ccccc3o2)cc1` [SBC-115,423], the pIC50 in assay [1] (setting [3]) was 5.09; in assay [1] (setting [4]), above 5.00.
For `COc1cccc2c(C)c(C(=O)Nc3ccc(C(=O)Nc4ccc(-c5ncco5)cc4)cc3)oc12` [SBC-115,445], in that order: 5.66 and above 5.00.
As for `O=C(Nc1ccc(C2=NCCO2)cc1)c1ccc(NC(=O)c2cc3ccccc3o2)cc1` [SBC-115,432], the pIC50 was 5.96 in assay [1] (setting [3]) and above 5.00 in assay [1] (setting [4]). Besides, the “effect on PCSK9 synthesis” value in assay [2] was “not due to its effect on synthesis and secretion of PCSK9”. For the same molecule, in the assay with HepG2 cells, the “fluorescent Dil-LDL uptake” value is on record as “significant increases in the Dil-LDL uptake”. Besides, the “level of LDLR as compared to control” value with LDLR is “significant increase in the level of LDLR”.
For `COc1ccc2oc(C(=O)Nc3ccc(C(N)=O)cc3)c(C)c2c1` [SBC-115,270], the pIC50 was above 5.00 in assay [1] (setting [4]) and 5.15 in assay [1] (setting [5]). In addition, the “fluorescent Dil-LDL uptake” value in the assay with HepG2 cells is listed as “increase in fluorescently labeled LDL uptake”.
Regarding `CN1C(=O)c2ccc(NC(=O)c3cc4ccccc4o3)cc2C1=O` [SBC-115,341], the pIC50 in assay [1] (setting [4]) is above 5.00.
Turning to `NC(=O)c1ccc(NC(=O)c2ccc(NC(=O)c3cc4ccccc4o3)cc2)cc1` [SBC-115,424], the pIC50 in assay [1] (setting [3]) is 5.77; in assay [1] (setting [4]), above 5.00. For the same molecule, the “effect on PCSK9 synthesis” value in assay [2] is “not due to its effect on synthesis and secretion of PCSK9”. The “fluorescent Dil-LDL uptake” value in the assay on HepG2 cells is “significant increases in the Dil-LDL uptake”. For the same molecule, in the assay on LDLR, the “level of LDLR as compared to control” value is given as “significant increase in the level of LDLR”.
Consider `COc1cccc2cc(C(=O)Nc3ccc4c(c3)C(=O)N(C)C4=O)oc12` [SBC-115,202], for which the values for the pIC50 in assay [1] (setting [4]) and in assay [1] (setting [5]) were above 5.00 and 5.02, respectively. The “fluorescent Dil-LDL uptake” value in the assay with HepG2 cells is on record as “increase in fluorescently labeled LDL uptake”.
Consider `O=C(Nc1ccc(-c2nc3ccccc3o2)cc1)c1ccc(NC(=O)c2cc3ccccc3o2)cc1` [SBC-115,337], for which, in the assay with plasma LDL-C (3 mg/kg subcutaneously daily for 4 days, with or without LPS (5 mg/Kg), FIG. 10), the “reduction in LDL-C levels relative to high fat diet animal levels” value was 20-25%. Besides, the pIC50 is 6.22 in assay [1] (setting [3]), above 5.00 in assay [1] (setting [4]) and 6.30 in assay [1] (setting [5]). Also, the “fluorescent Dil-LDL uptake” value in the assay on HepG2 cells is “increase in fluorescently labeled LDL uptake”.
